From US20220106289A1, “NLRP3 INHIBITORS” (INFLAZOME LIMITED, priority 2018, published 2022)
Structures can show the parent of a compound that is named as a salt.

Tests used:
[1] = PK in rats, intravenous administration; assay type: in vivo; conditions: male, Sprague-Dawley, 1 mg/kg; for AUC / half-life: rat plasma; for clearance / Vd: plasma, rat; for Vd: read-out: Vdss
Procedure: Pharmacokinetic parameters were determined in male Sprague Dawley rats (Charles River, UK, 250-300 g; or Vital River Laboratory Animal Technology Co Ltd, Beijing, China, 7-9 weeks old). Animals were individually housed during the study and maintained under a 12 h light/dark cycle. Animals had free access to food and water, except that orally dosed animals were food deprived overnight prior to the study. For intravenous administration, compounds were formulated as a solution in DMSO:PBS [10:90] in 2 mL/kg dosing volume and administered via tail vein. For oral administration, compounds were formulated as a solution in DMSO:water [10:90] in 5 mL/kg dosing volume and administered orally. Serial blood samples (about 200-230 μL) were taken from each animal at each of 8 time-points post dose (0.083, 0.25, 0.5, 1, 2, 4, 8 and 24 h). Samples were held on ice for no longer than 30 minutes before centrifugation (10,000 rpm (8,385 g) for 3 minutes; or 5,696 rpm (3,000 g) for 15 minutes) for plasma generation. Plasma was frozen on dry ice prior to bioanalysis. PK parameters were generated from LC-MS/MS data using Dotmatics or Phoenix WinNonlin 6.3 software.

[2] = target: T1, NLRP3 (Homo sapiens, UniProt Q96P20); experiment: THP-1 cells pyroptosis assay (LPS + nigericin, resazurin read-out); assay type: cell-based; design: Seed THP-1 cells (25,000 cells/well) containing 1.0 μg/ml LPS; host or cells: THP-1 cells; conditions: NLRP3 inhibitory activity, 1 μg/ml LPS, 5 μM nigericin
T1 sequence (Q96P20 whole entry): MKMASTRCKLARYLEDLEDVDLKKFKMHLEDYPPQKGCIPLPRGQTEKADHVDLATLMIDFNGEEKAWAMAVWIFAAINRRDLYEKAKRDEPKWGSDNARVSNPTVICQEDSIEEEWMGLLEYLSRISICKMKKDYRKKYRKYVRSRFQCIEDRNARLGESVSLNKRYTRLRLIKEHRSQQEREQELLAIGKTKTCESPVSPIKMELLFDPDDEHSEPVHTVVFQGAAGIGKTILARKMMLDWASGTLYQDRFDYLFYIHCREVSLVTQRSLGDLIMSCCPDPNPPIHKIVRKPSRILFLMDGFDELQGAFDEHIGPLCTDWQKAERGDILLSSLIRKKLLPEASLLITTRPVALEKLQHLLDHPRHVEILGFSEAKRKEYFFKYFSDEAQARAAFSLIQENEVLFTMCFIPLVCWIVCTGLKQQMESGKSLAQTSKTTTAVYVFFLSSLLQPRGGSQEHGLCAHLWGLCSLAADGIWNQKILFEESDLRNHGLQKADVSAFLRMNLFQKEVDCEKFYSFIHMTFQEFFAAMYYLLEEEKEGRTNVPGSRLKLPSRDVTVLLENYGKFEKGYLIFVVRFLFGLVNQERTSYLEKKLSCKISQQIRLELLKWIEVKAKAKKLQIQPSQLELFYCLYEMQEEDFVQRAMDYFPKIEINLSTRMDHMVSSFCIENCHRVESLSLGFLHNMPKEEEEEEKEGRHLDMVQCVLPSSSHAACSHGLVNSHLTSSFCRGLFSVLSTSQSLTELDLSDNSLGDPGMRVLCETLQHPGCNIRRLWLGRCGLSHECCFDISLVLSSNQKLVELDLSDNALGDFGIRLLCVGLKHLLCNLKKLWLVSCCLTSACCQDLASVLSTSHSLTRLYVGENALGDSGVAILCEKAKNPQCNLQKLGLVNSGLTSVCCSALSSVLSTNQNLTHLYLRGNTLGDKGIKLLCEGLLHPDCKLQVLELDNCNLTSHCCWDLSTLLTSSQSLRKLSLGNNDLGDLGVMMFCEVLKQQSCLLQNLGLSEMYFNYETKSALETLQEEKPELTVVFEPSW
In short: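 THP-1 cells in serum-free RPMI were primed with 1 μg/ml LPS and incubated 3 h at 37° C with compound, then given 5 μM nigericin for 1 h. After supernatant removal, viability was read by 100 μM resazurin over 1-2 h at 37° C.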

[3] = target: T1, NLRP3; experiment: Human whole blood IL-1β release assay (LPS + nigericin, AlphaLisa); assay type: cell-based; design: Human whole blood in Li-heparin tubes was obtained from healthy donors; from tissue; host or cells: human whole blood from healthy donors; conditions: NLRP3 inhibitory activity, 1 μg/ml LPS, 10 μM nigericin, read-out: HWB IC50
Procedure: For systemic delivery, the ability to inhibit NLRP3 when the compounds are present within the bloodstream is of great importance. For this reason, the NLRP3 inhibitory activity of a number of compounds in human whole blood was investigated in accordance with the following protocol. Human whole blood in Li-heparin tubes was obtained from healthy donors from a volunteer donor panel. • 1. […] Incubate for 3 hrs at 37° C., 5% CO2 • 4. Add 10 μl nigericin (Sigma #N7143) (10 μM FAC) to all wells • 5. Incubate for 1 hr at 37° C., 5% CO2 • 6. At the end of the incubation period, spin plates at 300×g for 5 mins to pellet cells and remove 20 μl of supernatant and add to 96-well v-bottom plates for IL-1β analysis (note: these plates containing the supernatants can be stored at -80° C. to be analysed at a later date) • 7. IL-1β was measured according to the manufacturer protocol (Perkin Elmer-AlphaLisa IL-1 Kit A[…]-5000) • 8.

Row | Structure (SMILES) | AUC [1] [ng·h/mL] | half-life [1] [h] | clearance [1] [mL/min/kg] | Vd [1] [L/kg] | IC50 [2] [nM] | IC50 [3] [nM]
1 | COC1(c2cc(S(=O)(=O)NC(=O)Nc3c4c(cc5c3CCC5)CCC4)nn2C)CCC1 [Example 51, N-((1,2,3,5,6,7-Hexahydro-s-indacen-4-yl)carbamoyl)-5-(1-methoxycyclobutyl)-1-methyl-1H-pyrazole-3-sulfonamide] | 4870 | 1 | 3.4 | 0.29 | < 250 | 250 to 500
2 | [2H]C([2H])([2H])C([2H])(n1ccc(S(=O)(=O)NC(=O)Nc2c3c(cc4c2CCC4)CCC3)n1)C([2H])([2H])[2H] [Example 20, N-((1,2,3,5,6,7-Hexahydro-s-indacen-4-yl)carbamoyl)-1-(propan-2-yl-d7)-1H-pyrazole-3-sulfonamide, potassium salt] | 21600 | 4.7 | 0.8 | 0.25 |  | 
3 | O=C(Nc1c2c(cc3c1CCC3)CCC2)NS(=O)(=O)c1ccn(CC(F)(F)F)n1 [Example 42, N-((1,2,3,5,6,7-Hexahydro-s-indacen-4-yl)carbamoyl)-1-(2,2,2-trifluoroethyl)-1H-pyrazole-3-sulfonamide] |  |  |  |  | < 250 | 1000 to 5000
4 | COC1(c2cc(S(=O)(=O)NC(=O)Nc3c4c(cc5c3CCC5)CCC4)nn2C)CCCC1 [Example 52, N-((1,2,3,5,6,7-hexahydro-s-indacen-4-yl)carbamoyl)-5-(1-methoxycyclopentyl)-1-methyl-1H-pyrazole-3-sulfonamide] |  |  |  |  | < 250 | 500 to 1000
5 | CC(C)c1cc(F)cc2c1C(C(=O)NS(=O)(=O)c1cc(C(C)(C)O)cs1)CC2(C)C (single isomer, unassigned) [Example 8, 5-Fluoro-N-((4-(2-hydroxypropan-2-yl)thiophen-2-yl)sulfonyl)-7-isopropyl-3,3-dimethyl-2,3-dihydro-1H-indene-1-carboxamide, potassium salt (rotamer P1)] |  |  |  |  | 500 to 1000 | 1000 to 5000
6 | CC(C)n1ccc(S(=N)(=O)NC(=O)Cc2c3c(cc4c2CCC4)CCC3)n1 (centres unmarked) [Example 24, 2-(1,2,3,5,6,7-Hexahydro-s-indacen-4-yl)-N-(1-isopropyl-1H-pyrazole-3-sulfonimidoyl)acetamide] |  |  |  |  | 1000 to 5000 | > 10000
7 | CC(C)(CN1CCCC1)n1ccc(S(=O)(=O)NC(=O)Nc2c3c(cc4c2CCC4)CCC3)n1 [Example 65, N-((1,2,3,5,6,7-Hexahydro-s-indacen-4-yl)carbamoyl)-1-(2-methyl-1-(pyrrolidin-1-yl)propan-2-yl)-1H-pyrazole-3-sulfonamide, sodium salt] |  |  |  |  | < 250 | 250 to 500
8 | CC(C)c1cc(C#N)cc(C(C)C)c1NC(=O)NS(=O)(=O)c1cc(C(C)(C)O)n(C)n1 [Example 71, N-((4-Cyano-2,6-diisopropylphenyl)carbamoyl)-5-(2-hydroxypropan-2-yl)-1-methyl-1H-pyrazole-3-sulfonamide] |  |  |  |  | 500 to 1000 | 1000 to 5000
9 | O=C(Nc1c2c(cc3c1CCO3)CCC2)NS(=O)(=O)c1ccn(C2CC2)n1 [Example 67, 1-Cyclopropyl-N-((3,5,6,7-tetrahydro-2H-indeno[5,6-b]furan-4-yl)carbamoyl)-1H-pyrazole-3-sulfonamide] |  |  |  |  | < 250 | 1000 to 5000
10 | CC(C)n1cnc(S(=O)(=O)NC(=O)Nc2c3c(cc4c2CCC4)CCC3)n1 [Example 46, N-((1,2,3,5,6,7-Hexahydro-s-indacen-4-yl)carbamoyl)-1-isopropyl-1H-1,2,4-triazole-3-sulfonamide, sodium salt] | 10000 | 4 | 1.7 | 0.45 | 250 to 500 | 500 to 1000
11 | CC(C)n1cc(S(=O)(=O)NC(=O)Nc2c3c(c(Br)c4c2CCC4)CCC3)cn1 [Example 36, N-((8-Bromo-1,2,3,5,6,7-hexahydro-s-indacen-4-yl)carbamoyl)-1-isopropyl-1H-pyrazole-4-sulfonamide] |  |  |  |  | < 250 | 5000 to 10000
12 | O=C(Nc1c2c(cc3c1CCC3)CCC2)NS(=O)(=O)c1ccn(CC(F)F)n1 [Example 63, 1-(2,2-Difluoroethyl)-N-((1,2,3,5,6,7-hexahydro-s-indacen-4-yl)carbamoyl)-1H-pyrazole-3-sulfonamide, sodium salt] |  |  |  |  | < 250 | 1000 to 5000
13 | CC(C)n1cc(F)c(S(=O)(=O)NC(=O)Nc2c3c(cc4c2CCC4)CCC3)n1 [Example 55, 4-Fluoro-N-((1,2,3,5,6,7-hexahydro-s-indacen-4-yl)carbamoyl)-1-isopropyl-1H-pyrazole-3-sulfonamide] |  |  |  |  | < 250 | 500 to 1000
14 | CN(C)Cc1ccc(S(=O)(=O)NC(=O)Nc2c3c(cc4c2CCC4)CCC3)cc1 [Example 66, 4-((Dimethylamino)methyl)-N-((1,2,3,5,6,7-hexahydro-s-indacen-4-yl)carbamoyl)benzenesulfonamide, sodium salt] |  |  |  |  | < 250 | 250 to 500
15 | CC(C)n1ccc(S(=O)(=O)NC(=O)Nc2c3c(cc4c2CCC4O)CCC3)n1 (centres unmarked) [Example 21, N-((1-Hydroxy-1,2,3,5,6,7-hexahydro-s-indacen-4-yl)carbamoyl)-1-isopropyl-1H-pyrazole-3-sulfonamide] |  |  |  |  | 5000 to 10000 | 5000 to 10000
16 | O=C(Nc1c2c(cc3c1CCC3)CCC2)NS(=O)(=O)c1cnn(CC(F)(F)F)c1 [Example 41, N-((1,2,3,5,6,7-Hexahydro-s-indacen-4-yl)carbamoyl)-1-(2,2,2-trifluoroethyl)-1H-pyrazole-4-sulfonamide, sodium salt] |  |  |  |  | 250 to 500 | 5000 to 10000
17 | O=C(Nc1c2c(cc3c1CCC3)CCC2)NS(=O)(=O)c1cc[nH]n1 [Example 13, N-((1,2,3,5,6,7-Hexahydro-s-indacen-4-yl)carbamoyl)-1H-pyrazole-3-sulfonamide, potassium salt] |  |  |  |  | 1000 to 5000 | > 10000
18 | COc1cc(-c2cc(F)cc(C(C)C)c2CCC(=O)NS(=O)(=O)c2ccc(C(C)(C)O)cc2C)ccn1 [Example 3, 3-(4-Fluoro-2-isopropyl-6-(2-methoxypyridin-4-yl)phenyl)-N-((4-(2-hydroxypropan-2-yl)-2-methylphenyl)sulfonyl)propanamide] |  |  |  |  | 1000 to 5000 | > 10000
19 | CC(C)c1cccc(C(C)C)c1NC(=O)NS(=O)(=O)c1cnn(C(C)C)c1 [Example 69, N-((2,6-Diisopropylphenyl)carbamoyl)-1-isopropyl-1H-pyrazole-4-sulfonamide] |  |  |  |  | 500 to 1000 | 1000 to 5000
20 | CC(C)n1ccc(S(=O)(=O)NC(=O)Nc2c3c(cc4c2C(=O)CC4)CCC3)n1 [Example 15, 1-Isopropyl-N-((3-oxo-1,2,3,5,6,7-hexahydro-s-indacen-4-yl)carbamoyl)-1H-pyrazole-3-sulfonamide, potassium salt] |  |  |  |  | 1000 to 5000 | > 10000
21 | CC(C)n1ccc(S(=O)(=O)NC(=O)Nc2c3c(c(Cl)c4c2CCC4)CCC3)n1 [Example 35, N-((8-Chloro-1,2,3,5,6,7-hexahydro-s-indacen-4-yl)carbamoyl)-1-isopropyl-1H-pyrazole-3-sulfonamide] |  |  |  |  | < 250 | 5000 to 10000
22 | CC(C)c1cc(F)cc(C(C)C)c1CC(=O)NS(=O)(=O)c1ccc(CN(C)C)cc1 [Example 33, N-((4-((Dimethylamino)methyl)phenyl)sulfonyl)-2-(4-fluoro-2,6-diisopropylphenyl)acetamide, 2,2,2-trifluoroacetate salt] |  |  |  |  | 1000 to 5000 | 1000 to 5000
23 | COC(C)(C)c1cc(S(=O)(=O)NC(=O)Nc2c(C(C)C)cccc2C(C)C)nn1C [Example 81, N-((2,6-Diisopropylphenyl)carbamoyl)-5-(2-methoxypropan-2-yl)-1-methyl-1H-pyrazole-3-sulfonamide] |  |  |  |  | 250 to 500 | 250 to 500
